From patent US20150018384A1, “TREATMENT FOR HIGH CHOLESTEROL” (FibroGen, Inc., priority 2012, published 2015)

Legend:
cynomolgus monkeys [1] = assay: Cholesterol levels after repeated oral administration in monkey toxicity studies; assay type: in vivo, cynomolgus monkey; settings: 28-Day study, daily oral dosing 1, 10 and 30 mg/kg, day 14 and 29
Procedure: During these studies monkeys were fasted prior to each blood collection. Plasma samples were then evaluated at pre-dose and at different time-points for levels of total cholesterol.

healthy human subjects = settings: 0.15 mg/kg or […] weekly for 4 weeks
Procedure: Placebo was administered in the same regimen as a control (n=2 or n=1). Fasting blood samples for cholesterol analysis were collected from subjects in the morning on the day of dosing before compound or placebo was administered.

cynomolgus monkeys [2] = assay: Lipid panel in monkeys after single IV or PO dose; assay type: in vivo, cynomolgus monkey; settings: 30 mg/kg IV or PO (3 each, 6 monkeys), 24 hrs post-dose, ±SD
Procedure: The same monkeys were administered the test compounds in sequence with a washout period between administration of each compound. Monkeys were fasted overnight prior to dosing and food was withheld during the first 4 hours after dosing and food was then allowed. Blood samples were collected at baseline prior to dosing, 4, 12, 24, 48 and 72 hrs after HIF-PHI administration. […] There were a total of 6 monkeys in each dose group, 3 that were dosed PO and 3 dosed IV.

ApoE deficient mice = assay: High cholesterol mouse model, ApoE deficient mice, 2 weeks; assay type: in vivo; settings: Compound 60 mg/kg three times a week for two weeks, n=10/group, FIG. 22
Description: Ten-week-old male apoE knockout mice (Jackson Laboratories, Bar Harbor, Me.) were fed a normal chow diet (0.02% cholesterol, 13.5% fat by weight; LabDiet). […] After 2 weeks of acclimatization, whole blood was collected for baseline measurement before administration of test reagents. […] The animals were sacrificed at end of study.
ApoE deficient mice as described in Example 10 were used to test the effect of various compounds on cholesterol levels. […] A statin compound (rosuvastatin) was also tested. Blood samples were collected at the end of the study and total cholesterol blood levels were tested. A group of 10 mice was sacrificed at the beginning of the study for a baseline total cholesterol measurement. […] Typically statins show mixed results in this model and are not very effective to reduce cholesterol in mice (Bea et al. 2003 Atherosclerosis 167:187-194).

DIO mice = assay: High cholesterol mouse model, diet induced obesity (DIO) mice; settings: Compound 60 mg/kg three times a week, n=10/group, FIG. 23
Description: Ten-week-old male apoE knockout mice (Jackson Laboratories, Bar Harbor, Me.) were fed a normal chow diet (0.02% cholesterol, 13.5% fat by weight; LabDiet). Ten-week-old male diet induced obese mice (DIO Mice, Jackson Laboratories, Bar Harbor, Me.) were fed a high fat diet (0.095% cholesterol, 60% fat by weight; ResearchDiets) starting at six-weeks-old. After 2 weeks of acclimatization, whole blood was collected for baseline measurement before administration of test reagents. All test reagents were administered orally by gavage needle three times a week for 2 weeks for the apoE mice, and three times a week for 4 weeks for the DIO mice. The animals were sacrificed at end of study. Whole blood was collected weekly in Heparin-tube by submandibular bleeding and isolated plasma was stored at −80° C. for measurement of total cholesterol.
DIO mice as described in Example 10 were used to test the effect of various compounds on cholesterol levels. Compound (60 mg/kg) or vehicle was administered to the mice (n=10/group) three times a week for four weeks. A statin compound (rosuvastatin) was also tested. Blood samples were collected at weekly and total cholesterol blood levels were tested.

SMILES | total cholesterol levels (cynomolgus monkeys [1]) | total cholesterol levels (cynomolgus monkeys [1]; listed as compound C) | total cholesterol levels over the course of treatment (healthy human subjects) | Cholesterol change from baseline (cynomolgus monkeys [2]) | HDL change from baseline (cynomolgus monkeys [2]) | TGs change from baseline (cynomolgus monkeys [2]) | total cholesterol levels at the end of the study compared to baseline (ApoE deficient mice) | percent change from baseline in total cholesterol at two weeks compared to vehicle treated (DIO mice)
N#Cc1nc(C(=O)NCC(=O)O)c(O)c2c(Oc3ccc(Cl)cc3)cccc12 [Compound C] | dose-dependent decrease in cholesterol levels | dose dependent decrease in total cholesterol | decreased | -11.8 ± 4.9 mg/dL | 0.5 ± 6.9 mg/dL | -10 ± 21 mg/dL |  | 
CC(C)c1nc(N(C)S(C)(=O)=O)nc(-c2ccc(F)cc2)c1/C=C/[C@@H](O)C[C@@H](O)CC(=O)O [rosuvastatin, reference compound] |  |  |  |  |  |  | did not show a reduction in cholesterol | lower total cholesterol levels
